The test system of one series is Rattus norvegicus. As to conditions: for LD50: acute, mortality.
In a further series the test system is Canidae. As to conditions: subchronic; duration: 90 days; oral; Dog Other; organ weight.
In the next series the test system is Folsomia candida. The note with it: chronic/long-term.
In another series the test system is Apis mellifera. As to conditions: acute, mortality.
A further series deals with Daphnia magna. As to conditions: chronic/long-term; duration: 21 days; reproduction.
Another series deals with Anas platyrhynchos. The note with it: reproductive.

Where “and” joins values, the source holds several entries; their conditions need not be identical. Equal entries are not always repeated. Bounds are passed on as bounds.

As to `COCC(=O)N(c1c(C)cccc1C)[C@H](C)C(=O)OC` [Metalaxyl-M], the LC50 is above 100 mg/L in the series on Oncorhynchus mykiss (acute, duration: 96 hours, mortality); above 5620 mg/kg with Colinus virginianus (acute, oral, diet, mortality); 830 mg/kg in the series with Tagia sp. (acute, duration: 14 days, mortality). The NOEC in the series with Oncorhynchus mykiss (chronic/long-term, duration: 28 days, growth) is 50 mg/L; with Folsomia candida, 125 mg/kg; in the series on Daphnia magna it was 25 mg/L; with Tagia sp. (chronic/long-term, duration: 8 weeks), 35.6 mg/kg. Moreover, the LD50 in the series on Rattus norvegicus (F) is 375 mg/kg-day; with Rattus norvegicus (M), 953 mg/kg-day; in the series with Apis mellifera (dermal), above 100 µg/piece; in the series with Apis mellifera (oral, unspecified) it was above 97.3 µg/piece; in the series on Colinus virginianus (acute, oral, mortality) it was 1420 mg/kg-day and 981 mg/kg-day and 1180 mg/kg-day. The NOAEL in the series with Rattus norvegicus (reproduction developmental, body weight) came to 50 mg/kg-day; in the series with Canidae it was 8 mg/kg-day. Further, the NOEL came to 8.4 mg/kg-day with Colinus virginianus (reproduction developmental) and 117 mg/kg-day with Anas platyrhynchos.

By NOAEL is commonly meant the highest dose or exposure tested at which no adverse effect was seen.

For the origin of these results see EPA's ToxValDB 9.5 (doi:10.2903/j.efsa.2015.3999).
